Measurements: PubChem BioAssay AID2060620 (Molecular Pharmacology Branch, DTP, NCI, 2025)

System: 328373-195-R-J1-PDC complex spheroids, viability % test/control
Test: Anticancer human tumor 328373-195-R-J1-PDC patient-derived head and neck squamous carcinoma cell line growth inhibition [CLK]
Details: for IC50: curve of first compound; for viability, T/C: stronger effect = lower value
Outline: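 Multi-cell-type spheroids combined patient-derived tumor cells with HUVEC endothelial cells and human mesenchymal stem cells. Paired agents were dosed in half-log steps down from about clinical Cmax, or from 10 microM where Cmax was unknown.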

[1] = second compound 0.0316 µM, first compound 0.0316 µM
[2] = second compound 0.0316 µM, first compound 0.1 µM
[3] = second compound 0.0316 µM, first compound 0.316 µM
[4] = second compound 0.0316 µM, first compound 1 µM
[5] = second compound 0.0316 µM, first compound 3.16 µM
[6] = second compound 0.0316 µM, first compound 10 µM
[7] = second compound 0.1 µM, first compound 0.0316 µM
[8] = second compound 0.1 µM, first compound 0.1 µM
[9] = second compound 0.1 µM, first compound 0.316 µM
[10] = second compound 0.1 µM, first compound 1 µM
[11] = second compound 0.1 µM, first compound 3.16 µM
[12] = second compound 0.1 µM, first compound 10 µM
[13] = second compound 0.316 µM, first compound 0.0316 µM
[14] = second compound 0.316 µM, first compound 0.1 µM
[15] = second compound 0.316 µM, first compound 0.316 µM
[16] = second compound 0.316 µM, first compound 1 µM
[17] = second compound 0.316 µM, first compound 3.16 µM
[18] = second compound 0.316 µM, first compound 10 µM
[19] = second compound 1 µM, first compound 0.0316 µM
[20] = second compound 1 µM, first compound 0.1 µM
[21] = second compound 1 µM, first compound 0.316 µM
[22] = second compound 1 µM, first compound 1 µM
[23] = second compound 1 µM, first compound 3.16 µM
[24] = second compound 1 µM, first compound 10 µM
[25] = second compound 3.16 µM, first compound 0.0316 µM
[26] = second compound 3.16 µM, first compound 0.1 µM
[27] = second compound 3.16 µM, first compound 0.316 µM
[28] = second compound 3.16 µM, first compound 1 µM
[29] = second compound 3.16 µM, first compound 3.16 µM
[30] = second compound 3.16 µM, first compound 10 µM
[31] = second compound 10 µM, first compound 0.0316 µM
[32] = second compound 10 µM, first compound 0.1 µM
[33] = second compound 10 µM, first compound 0.316 µM
[34] = second compound 10 µM, first compound 1 µM
[35] = second compound 10 µM, first compound 3.16 µM
[36] = second compound 10 µM, first compound 10 µM
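Also: spheroids exposed to the agents for 7 days.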

COc1ccc([C@@H](O)c2cc(-c3ncnc4cc(N5CCOCC5)ccc34)c(F)cc2Cl)nn1 + CNC(=O)c1ccc(Nc2nc(OC3CCCC3)c3c(-c4ccc5nc(C)oc5c4)c[nH]c3n2)c(OC)c1
IC50 (second compound 0.0316 µM): 3760 nM
IC50 (second compound 0.1 µM): < 31.6 nM
IC50 (second compound 0.316 µM): < 31.6 nM
IC50 (second compound 1 µM): < 31.6 nM
IC50 (second compound 3.16 µM): < 31.6 nM
IC50 (second compound 10 µM): < 31.6 nM
viability, T/C [1]: 51.2%
viability, T/C [2]: 56.5%
viability, T/C [3]: 43.4%
viability, T/C [4]: 58.7%
viability, T/C [5]: 55.4%
viability, T/C [6]: 33.3%
viability, T/C [7]: 10.5%
viability, T/C [8]: 8.48%
viability, T/C [9]: 12.4%
viability, T/C [10]: 10%
viability, T/C [11]: 9.78%
viability, T/C [12]: 12.6%
viability, T/C [13]: 8.21%
viability, T/C [14]: 8.88%
viability, T/C [15]: 8.95%
viability, T/C [16]: 7.72%
viability, T/C [17]: 10.2%
viability, T/C [18]: 12.2%
viability, T/C [19]: 10.3%
viability, T/C [20]: 8.67%
viability, T/C [21]: 10.8%
viability, T/C [22]: 9.89%
viability, T/C [23]: 9.31%
viability, T/C [24]: 12.8%
viability, T/C [25]: 9.71%
viability, T/C [26]: 9.31%
viability, T/C [27]: 9.23%
viability, T/C [28]: 9.82%
viability, T/C [29]: 10.5%
viability, T/C [30]: 13.2%
viability, T/C [31]: 10.6%
viability, T/C [32]: 10.8%
viability, T/C [33]: 8.9%
viability, T/C [34]: 13.1%
viability, T/C [35]: 12.2%
viability, T/C [36]: 12.5%

COc1cccc2c1C(=O)c1c(O)c3c(c(O)c1C2=O)CC(O)(C(=O)CO)CC3OC1CC(N)C(O)C(C)O1 (centres undefined) + CNC(=O)c1ccc(Nc2nc(OC3CCCC3)c3c(-c4ccc5nc(C)oc5c4)c[nH]c3n2)c(OC)c1
IC50 (second compound 0.0316 µM): < 31.6 nM
IC50 (second compound 0.1 µM): < 31.6 nM
IC50 (second compound 0.316 µM): < 31.6 nM
IC50 (second compound 1 µM): < 31.6 nM
IC50 (second compound 3.16 µM): < 31.6 nM
IC50 (second compound 10 µM): < 31.6 nM
viability, T/C [1]: 12.6%
viability, T/C [2]: 4.2%
viability, T/C [3]: 0.6%
viability, T/C [4]: 0.17%
viability, T/C [5]: 0.12%
viability, T/C [6]: 3.04%
viability, T/C [7]: 8.2%
viability, T/C [8]: 3.67%
viability, T/C [9]: 0.55%
viability, T/C [10]: 0.13%
viability, T/C [11]: 0.09%
viability, T/C [12]: 4.34%
viability, T/C [13]: 8.9%
viability, T/C [14]: 3.98%
viability, T/C [15]: 0.5%
viability, T/C [16]: 0.07%
viability, T/C [17]: 0.07%
viability, T/C [18]: 1.96%
viability, T/C [19]: 8.51%
viability, T/C [20]: 2.74%
viability, T/C [21]: 1.07%
viability, T/C [22]: 0.06%
viability, T/C [23]: 0.07%
viability, T/C [24]: 4.59%
viability, T/C [25]: 11.5%
viability, T/C [26]: 3.82%
viability, T/C [27]: 0.22%
viability, T/C [28]: 0.06%
viability, T/C [29]: 0.93%
viability, T/C [30]: 2.69%
viability, T/C [31]: 12.1%
viability, T/C [32]: 1.9%
viability, T/C [33]: 0.16%
viability, T/C [34]: 0.1%
viability, T/C [35]: 0.6%
viability, T/C [36]: 2.6%
